Experimental findings from ChEMBL document CHEMBL1201862, “PubChem BioAssay data set” (2004) are described below.

A word on the GI50: it is the concentration that inhibits growth by half.

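Compound exposure: 48 hours, 5 concentrations, 96-well plates. The concentration for 50% growth inhibition is given as GI50.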 Calls of active or inactive are those of the source. Rule as the data show it: active = GI50 up to about 1.1 µM and inactive = higher.

Some test systems named below: BT-549; HOP-18; KM-20L2; LXFL 529; M19-MEL; RXF 631; SNB-78; XF498; DMS-273.
Experiment in all cases: DTP human tumour cell line panel, 48 h

On to `CC(=O)OCC1OC(n2cc(F)c(=O)[nH]c2=O)C(OC(C)=O)C1OC(C)=O` (stereo not drawn), for which the GI50 in the experiment on BT-549 was 68.5 µM (inactive); in the experiment on HOP-18, 38 µM (inactive); with KM-20L2, 54.1 µM (inactive); with LXFL 529, 4.31 µM (inactive); in the experiment with M19-MEL, 4.07 µM (inactive); in the experiment on RXF 631 it was 15.5 µM (inactive). For the same molecule, the figures for the GI50 in the experiment with SNB-78 and in the experiment with XF498 were > 100 µM (inactive) and 4.57 µM (inactive), respectively.
With `Cn1c2c(c3ccccc31)CCN(CCCCN1CCN(c3ccccc3)CC1)C2=O`, the GI50 in the experiment with BT-549 is 6.58 µM (inactive); with DMS-273, 31.4 µM (inactive); in the experiment with HOP-18 it was > 31.6 µM (inactive); in the experiment on KM-20L2, 4.29 µM (inactive); in the experiment on LXFL 529, 33.9 µM (inactive); in the experiment on M19-MEL, 43.6 µM (inactive). Besides, the GI50 with RXF 631 was 9.66 µM (inactive); with SNB-78, > 100 µM (inactive); in the experiment on XF498, 14.1 µM (inactive).
Take `O=C(O)COc1ccc(C(=O)/C(SS/C(C(=O)c2ccc(OCC(=O)O)c(Cl)c2Cl)=C2\C=C(c3ccccc3Cl)SS2)=C2/C=C(c3ccccc3Cl)SS2)c(Cl)c1Cl`: the GI50 in the experiment on DMS-273 was 25.6 µM (inactive); in the experiment with HOP-18, 24.1 µM (inactive); in the experiment with KM-20L2 it was 49.8 µM (inactive); in the experiment on LXFL 529, 5.5 µM (inactive); in the experiment with M19-MEL, 28.5 µM (inactive); with RXF 631, 25.5 µM (inactive). The figures for the GI50 in the experiment on SNB-78 and with XF498 were 16.9 µM (inactive) and 13.6 µM (inactive), respectively.
As to `CCc1cccc(C)c1NC(=O)CC1C(=O)Nc2ccccc2S1(=O)=O` (stereo not drawn), the GI50 was 7.01 µM (inactive) in the experiment with DMS-273; 18.5 µM (inactive) in the experiment on KM-20L2; 16.7 µM (inactive) in the experiment on LXFL 529; 15.5 µM (inactive) with M19-MEL; 14.2 µM (inactive) in the experiment with RXF 631; 21.1 µM (inactive) in the experiment on SNB-78. In addition, the GI50 in the experiment with XF498 was 12.5 µM (inactive).
With `Cc1nc2ccccc2c(=O)n1/N=C(\N=N\c1ccccc1Cl)c1ccccc1Cl`, the GI50 in the experiment on DMS-273 was 44.8 µM (inactive); in the experiment on HOP-18 it was 28 µM (inactive); with KM-20L2 it was 76.7 µM (inactive); in the experiment on LXFL 529, 52.1 µM (inactive); in the experiment with M19-MEL, > 100 µM (inactive); in the experiment with RXF 631 it was 88.9 µM (inactive). For the same molecule, the GI50 in the experiment on XF498 is 11.9 µM (inactive).
Consider `CCCCC(C)/C=C/C(O)=C1\C(=O)O/C(=C\C(=O)O)C1=O` (stereo not drawn), for which the GI50 with DMS-273, with HOP-18, in the experiment with KM-20L2, in the experiment with LXFL 529, with RXF 631 and in the experiment with SNB-78 was > 100 µM (inactive) throughout. In addition, the GI50 with XF498 is > 100 µM (inactive).
Turning to `O=C(NO)C(=O)Nc1ccc(Cl)cc1[N+](=O)[O-]`, the GI50 in the experiment with DMS-273, with HOP-18, in the experiment with KM-20L2, in the experiment on LXFL 529, with M19-MEL and in the experiment on RXF 631 was > 100 µM (inactive) each time. Also, the GI50 with SNB-78 is > 100 µM (inactive).
Take `COc1ccc2[nH]c3c(C)c4cc[n+](COC(=O)c5ccccc5)cc4c(C)c3c2c1`: the GI50 in the experiment on HOP-18 was 0.0198 µM (active); in the experiment on KM-20L2, 0.282 µM (active); in the experiment with LXFL 529, 0.148 µM (active); in the experiment with M19-MEL it was 0.381 µM (active); in the experiment on RXF 631 it was 0.165 µM (active); in the experiment with SNB-78, 0.897 µM (active). The GI50 in the experiment with XF498 was 1.48 µM (inactive).
Turning to `CCOc1ccc(NC(=O)C(=O)CC(=O)c2c[n+]([O-])c3cc(C)c(C)cc3[n+]2[O-])cc1`, the GI50 in the experiment on DMS-273, in the experiment on HOP-18, in the experiment on KM-20L2, in the experiment with LXFL 529, with M19-MEL and with RXF 631 was > 100 µM (inactive) each time. The GI50 in the experiment with SNB-78 and with XF498 was > 100 µM (inactive) in each case.
For `O=c1c2ccccc2nc(-c2ccccc2Cl)n1NCC1(O)OCC(O)C(O)C1O` (stereo not drawn), the GI50 with DMS-273, with KM-20L2, with LXFL 529, in the experiment on M19-MEL, in the experiment on RXF 631 and with SNB-78 was > 100 µM (inactive) each time. Moreover, the GI50 in the experiment with XF498 is > 100 µM (inactive).
`Cc1cc2oc(-c3ccccc3)c(C)c(=O)c2c2c1OC(C)(C)S2`: the GI50 was 71.9 µM (inactive) in the experiment with DMS-273; > 100 µM (inactive) in the experiment with HOP-18; 55.5 µM (inactive) with KM-20L2; > 100 µM (inactive) in the experiment on LXFL 529; > 100 µM (inactive) in the experiment with M19-MEL; > 100 µM (inactive) with RXF 631. Besides, the GI50 in the experiment on XF498 is > 100 µM (inactive).
Turning to `COc1ccc(Nc2nc(C#N)c(N)s2)cc1`, the GI50 with DMS-273 was 26.7 µM (inactive); with KM-20L2, 38.5 µM (inactive); with LXFL 529, 31.9 µM (inactive); with RXF 631, 35.9 µM (inactive); in the experiment with SNB-78, > 100 µM (inactive); in the experiment on XF498 it was 21.4 µM (inactive).
As to `O=C(NCCCCCCCCNC(=O)c1cccc2ccccc12)c1cccc2ccccc12`, the GI50 is 39.6 µM (inactive) in the experiment on BT-549; 52.8 µM (inactive) in the experiment with DMS-273; 21 µM (inactive) in the experiment on HOP-18; > 100 µM (inactive) in the experiment on KM-20L2; > 56.5 µM (inactive) in the experiment on LXFL 529; > 86.1 µM (inactive) with M19-MEL. Further, the GI50 with RXF 631 is 13.9 µM (inactive); with SNB-78, 13.4 µM (inactive); in the experiment on XF498, 4.44 µM (inactive).
In the case of `CC1=NNC(=O)C2CCC(=O)N12` (stereo not drawn), the GI50 was > 100 µM (inactive) with DMS-273; > 100 µM (inactive) with HOP-18; 49.2 µM (inactive) in the experiment with KM-20L2; > 100 µM (inactive) in the experiment on LXFL 529; > 100 µM (inactive) in the experiment with M19-MEL; > 100 µM (inactive) in the experiment with RXF 631. Further, in the experiment on SNB-78, the GI50 was > 100 µM (inactive).
Regarding `CC(C)(C)Sc1nnc(SC(C)(C)C)c2c(SC(C)(C)C)nnc(O)c12`, the GI50 in the experiment with DMS-273 is 7.8 µM (inactive); in the experiment on KM-20L2, 10.4 µM (inactive); in the experiment with LXFL 529, 10.6 µM (inactive); in the experiment with M19-MEL it was 4.37 µM (inactive); in the experiment on RXF 631 it was 3.2 µM (inactive); with SNB-78, 12.2 µM (inactive). In the experiment with XF498, the GI50 was 15.3 µM (inactive).
On to `OC1CCC[C@@H]1Sc1ccccc1` (stereo partly drawn), for which the GI50 in the experiment on DMS-273, in the experiment on KM-20L2, in the experiment with LXFL 529, in the experiment with M19-MEL, in the experiment with RXF 631 and in the experiment on SNB-78 was > 100 µM (inactive) throughout. Besides, the GI50 in the experiment with XF498 is > 100 µM (inactive).
